According to patent US9187472B2 (AbbVie Inc., priority 2012, dated 2015):
pIC50: −log10 of the molar value.

Tests used:
[1] = target: NAMPT (Homo sapiens, UniProt P43490); assay: TR-FRET Binding Assay of NAMPT with PRPP; conditions: with 200 μM PRPP and 2.5 mM ATP; 2 nM NAMPT, 2 nM probe, 16 hours equilibration
Procedure, shortened: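 NAMPT 2 nM + probe 2 nM + Tb-anti-His Ab 1 nM; PRPP 200 μM, ATP 2.5 mM, DMSO 2%; 16 h equilibration before TR-FRET read.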

[2] = tested on: PC3 cells; assay: NAMPT Cell Proliferation Assay; type: cell-based; conditions: Homo sapiens, PC-3, 120 h, 5 days incubation, cell viability by Cell Titer Glo
Procedure, shortened: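 PC3 cells were plated at 500 cells/well in RPMI with 10% heat-inactivated FBS, left to attach overnight, then given compounds in 10-fold dilutions from 10 μM to 1×10^−5 μM. After 5 days at 37° C and 5% CO2, viability was read by luminescence and IC50s came from sigmoidal fits of percent inhibition.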

[3] = target: NAMPT (human, recombinant, C-terminally His-tagged) (Homo sapiens, UniProt P43490); assay: Time-Resolved Fluorescence Resonance Energy Transfer (TR-FRET) Binding Assay of NAMPT; conditions: without substrates; 6.8 nM NAMPT, 200 nM probe, 3 hours equilibration
NAMPT (human, recombinant, C-terminally His-tagged), sequence (P43490 whole entry): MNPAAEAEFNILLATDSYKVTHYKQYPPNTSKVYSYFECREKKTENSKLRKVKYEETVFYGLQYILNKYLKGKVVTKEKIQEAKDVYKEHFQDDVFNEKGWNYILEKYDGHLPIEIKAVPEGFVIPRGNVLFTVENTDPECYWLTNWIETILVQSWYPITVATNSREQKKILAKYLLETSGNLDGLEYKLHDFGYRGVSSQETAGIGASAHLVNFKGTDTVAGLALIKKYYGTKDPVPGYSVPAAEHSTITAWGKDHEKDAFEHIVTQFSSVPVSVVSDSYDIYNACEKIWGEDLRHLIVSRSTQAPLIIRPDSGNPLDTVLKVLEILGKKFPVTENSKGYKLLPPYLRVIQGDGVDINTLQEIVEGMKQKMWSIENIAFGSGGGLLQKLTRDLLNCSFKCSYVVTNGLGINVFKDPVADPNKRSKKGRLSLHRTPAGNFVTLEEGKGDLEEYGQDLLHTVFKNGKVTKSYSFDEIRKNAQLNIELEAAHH
Procedure, shortened: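 Read-out is the time-resolved FRET ratio Em520/Em495 (excitation 337 nm) between a terbium anti-His antibody (1 nM) on the enzyme and an Oregon Green 488-labelled nicotinamide-competitive inhibitor probe (200 nM). Enzyme was 6.8 nM, DMSO 2%, pH 7.5 HEPES buffer; 3 h room-temperature equilibration preceded reading.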

NAMPT, sequence (P43490 whole entry): as above

Structure (SMILES) | pIC50 [1] | pIC50 [2] | pIC50 [3]
Cn1cccc1C(=O)N1CCC(c2ccc(C(=O)NCc3ccn4ccnc4c3)s2)C1 (stereo not drawn) [Example 771, N-(imidazo[1,2-a]pyridin-7-ylmethyl)-5-{1-[(1-methyl-1H-pyrrol-2-yl)carbonyl]pyrrolidin-3-yl}thiophene-2-carboxamide] | 9.24 | 8.46 | 7.15
COc1ccccc1C(=O)N1CCC(c2ccc(C(=O)NCc3ccn4ccnc4c3)cc2)C1 (stereo not drawn) [Example 587, N-(imidazo[1,2-a]pyridin-7-ylmethyl)-4-[1-(2-methoxybenzoyl)pyrrolidin-3-yl]benzamide] | 9.04 | 8.12 | 6.63
O=C(NCc1ccn2ccnc2c1)c1ccc(C2=CCN(C(=O)c3ccccc3F)CC2)o1 [Example 803, 5-[1-(2-fluorobenzoyl)-1,2,3,6-tetrahydropyridin-4-yl]-N-(imidazo[1,2-a]pyridin-7-ylmethyl)furan-2-carboxamide] | 9.00 | 7.75 | 6.50
CC[C@H](C)C(=O)NC1(c2ccc(C(=O)NCc3ccn4ccnc4c3)s2)COC1 [Example 408, N-(imidazo[1,2-a]pyridin-7-ylmethyl)-5-(3-{[(2S)-2-methylbutanoyl]amino}oxetan-3-yl)thiophene-2-carboxamide] | 9.14 | 7.72 | 6.56
O=C(NCc1ccn2ccnc2c1)c1ccc(-c2cnn(C3CCS(=O)(=O)C3)c2)s1 (stereo not drawn) [Example 296, 5-[1-(1,1-dioxidotetrahydrothiophen-3-yl)-1H-pyrazol-4-yl]-N-(imidazo[1,2-a]pyridin-7-ylmethyl)thiophene-2-carboxamide] | 9.65 | 7.94 | 7.17
COCCn1cc(-c2ccc(NC(=O)NCc3ccn4ccnc4c3)cc2)cn1 [Example 673, 1-(imidazo[1,2-a]pyridin-7-ylmethyl)-3-{4-[1-(2-methoxyethyl)-1H-pyrazol-4-yl]phenyl}urea] | 9.16 | 6.91 | 6.34
CC(C)C(=O)N1CC(Oc2ccc(C(=O)NCc3ccn4ccnc4c3)cc2)C1 [Example 558, N-(imidazo[1,2-a]pyridin-7-ylmethyl)-4-{[1-(2-methylpropanoyl)azetidin-3-yl]oxy}benzamide] | 9.45 | 5.93 | 5.85
O=C(NCCCCC1CCN(C(=O)CCC(F)(F)F)CC1)Nc1ccc2nccn2c1 [Example 65, 1-imidazo[1,2-a]pyridin-6-yl-3-{4-[1-(4,4,4-trifluorobutanoyl)piperidin-4-yl]butyl}urea] | 9.16 | 7.18 | 6.11
COCCC(=O)N(C[C@@H]1CCCO1)c1ncc(C(=O)NCc2ccc3nccn3c2)s1 [Example 148, N-(imidazo[1,2-a]pyridin-6-ylmethyl)-2-{(3-methoxypropanoyl)[(2S)-tetrahydrofuran-2-ylmethyl]amino}-1,3-thiazole-5-carboxamide] | 8.87 | 7.38 | 5.21
CC(C)CC(=O)N1CCC(c2ncc(C(=O)NCc3ccn4ccnc4c3)s2)CC1 [Example 544, N-(imidazo[1,2-a]pyridin-7-ylmethyl)-2-[1-(3-methylbutanoyl)piperidin-4-yl]-1,3-thiazole-5-carboxamide] | 9.36 | 6.19 | 6.06

Now from value to molecule:

pIC50 [1] | pIC50 [2] | pIC50 [3] | Structure (SMILES)
9.62 | < 5.00 | 6.01 | O=C(NCc1ccn2ccnc2c1)c1ccc(C2CCN(C(=O)[C@H]3CCOC3)C2)cc1 (stereo partly drawn) [Example 375, N-(imidazo[1,2-a]pyridin-7-ylmethyl)-4-{1-[(3S)-tetrahydrofuran-3-ylcarbonyl]pyrrolidin-3-yl}benzamide]
8.95 | 8.49 | 7.05 | CC1CC1C(=O)N1CCC(c2ccc(NC(=O)NCc3ccn4ccnc4c3)cc2)CC1 (stereo not drawn) [Example 711, 1-(imidazo[1,2-a]pyridin-7-ylmethyl)-3-(4-{1-[(2-methylcyclopropyl)carbonyl]piperidin-4-yl}phenyl)urea]
8.97 | 5.01 | < 5.00 | O=C(NCc1ccn2ccnc2c1)c1ccc(O[C@H]2CCN(C(=O)C3CC3)C2)cc1 [Example 352, 4-{[(3S)-1-(cyclopropylcarbonyl)pyrrolidin-3-yl]oxy}-N-(imidazo[1,2-a]pyridin-7-ylmethyl)benzamide]
9.67 | 7.64 | 6.96 | O=C(NCc1ccn2ccnc2c1)Nc1ccc(OC2CCN(C(=O)c3ccccc3)CC2)cc1 [Example 445, 1-{4-[(1-benzoylpiperidin-4-yl)oxy]phenyl}-3-(imidazo[1,2-a]pyridin-7-ylmethyl)urea]
9.21 | 6.74 | 6.16 | O=C(NCc1ccn2ccnc2c1)c1ccc(C2CCN(C(=O)c3cscn3)C2)cc1 (stereo not drawn) [Example 588, N-(imidazo[1,2-a]pyridin-7-ylmethyl)-4-[1-(1,3-thiazol-4-ylcarbonyl)pyrrolidin-3-yl]benzamide]
9.45 | 8.11 | 6.92 | O=C(NCc1ccn2ccnc2c1)Nc1ccc(C2CCN(C(=O)C3CCOCC3)CC2)cc1 [Example 221, 1-(imidazo[1,2-a]pyridin-7-ylmethyl)-3-{4-[1-(tetrahydro-2H-pyran-4-ylcarbonyl)piperidin-4-yl]phenyl}urea]
8.68 | 7.16 | 6.42 | O=C(NCc1ccn2ccnc2c1)Nc1ccc(-c2cnn(CC3CCOCC3)c2)cc1 [Example 675, 1-(imidazo[1,2-a]pyridin-7-ylmethyl)-3-{4-[1-(tetrahydro-2H-pyran-4-ylmethyl)-1H-pyrazol-4-yl]phenyl}urea]
9.17 | 7.17 | 7.42 | O=C(Cc1ccn2ccnc2c1)Nc1ccc(NC(=O)CC2CCCC2)cc1 [Example 739, 2-cyclopentyl-N-{4-[(imidazo[1,2-a]pyridin-7-ylacetyl)amino]phenyl}acetamide]
9.65 | 7.88 | 7.31 | O=C(NCc1ccn2ccnc2c1)Nc1ccc(C2CCN(C(=O)c3ccccc3)C2)cc1 (stereo not drawn) [Example 383, 1-[4-(1-benzoylpyrrolidin-3-yl)phenyl]-3-(imidazo[1,2-a]pyridin-7-ylmethyl)urea]
8.80 | 6.35 | 6.00 | CS(=O)(=O)N1CC(c2ccc(C(=O)NCc3ccn4ccnc4c3)cc2)C1 [Example 623, N-(imidazo[1,2-a]pyridin-7-ylmethyl)-4-[1-(methylsulfonyl)azetidin-3-yl]benzamide]
9.56 | < 5.00 | 5.78 | O=C(NCc1ccn2ccnc2c1)c1ccc(C2CCN(C(=O)C3COCCO3)C2)cc1 (stereo not drawn) [Example 377, 4-[1-(1,4-dioxan-2-ylcarbonyl)pyrrolidin-3-yl]-N-(imidazo[1,2-a]pyridin-7-ylmethyl)benzamide]
8.79 | 7.02 | 6.06 | O=C(NCc1ccn2ccnc2c1)c1ccc(C2CCN(C(=O)c3ccc(C(F)(F)F)cc3)CC2)cc1 [Example 705, N-(imidazo[1,2-a]pyridin-7-ylmethyl)-4-{1-[4-(trifluoromethyl)benzoyl]piperidin-4-yl}benzamide]
9.17 | 8.24 | 6.67 | CC1(C(=O)N2CCC(c3ccc(C(=O)NCc4ccn5ccnc5c4)cc3)C2)CCCCC1 (stereo not drawn) [Example 614, N-(imidazo[1,2-a]pyridin-7-ylmethyl)-4-{1-[(1-methylcyclohexyl)carbonyl]pyrrolidin-3-yl}benzamide]
